Test results: US20230277630A1, “METHODS AND COMPOSITIONS FOR TREATING AMYOTROPHIC LATERAL SCLEROSIS” (Amylyx Pharmaceuticals, Inc., priority 2022, published 2023)
Several values for one entry are separate records, joined by “and”; a condition that tells them apart may be missing. Equal entries are not always repeated.

Columns and labels:
P-gp and BCRP = P-gp and BCRP substrate assessment, bidirectional permeability in C2BBe1 cells; settings: for AP-to-BL Papp / BL-to-AP Papp / Papp A→B at 10 µM / Papp B→A at 10 µM: C2BBe1 cells, 10 μM probe; for Papp A→B at 10 µM / recovery at 10 μM / Papp B→A at 10 µM: human; for Papp A→B at 10 µM: Caco-2, pH 7.4, AP-to-BL Papp; for Papp B→A at 10 µM: Caco-2, pH 7.4, BL-to-AP Papp
Experimental: The P-gp and BCRP substrate assessment was conducted in C2BBe1 cell monolayers. […] LY was co-dosed with each dosing solution at a nominal concentration of 200 μM.
The cell culture medium was aspirated, and the cell monolayers were rinsed once with HBSSg_7.4. […] For receiver samples, aliquots (300 μL) were taken at pre-selected time points. […] For donor samples, aliquots (50 μL) were taken at pre-selected time points without replacement.

BCRP = target: T1, BCRP (Homo sapiens, UniProt Q9UNQ0); assay: BCRP IC50 assessment, bidirectional cladribine transport in BCRP-MDCK cells; settings: BCRP-MDCK cells, 10 μM cladribine alone or + TUDCA/PB Solution or 0.5 μM Ko143; single replicates
T1 sequence (Q9UNQ0 1-655): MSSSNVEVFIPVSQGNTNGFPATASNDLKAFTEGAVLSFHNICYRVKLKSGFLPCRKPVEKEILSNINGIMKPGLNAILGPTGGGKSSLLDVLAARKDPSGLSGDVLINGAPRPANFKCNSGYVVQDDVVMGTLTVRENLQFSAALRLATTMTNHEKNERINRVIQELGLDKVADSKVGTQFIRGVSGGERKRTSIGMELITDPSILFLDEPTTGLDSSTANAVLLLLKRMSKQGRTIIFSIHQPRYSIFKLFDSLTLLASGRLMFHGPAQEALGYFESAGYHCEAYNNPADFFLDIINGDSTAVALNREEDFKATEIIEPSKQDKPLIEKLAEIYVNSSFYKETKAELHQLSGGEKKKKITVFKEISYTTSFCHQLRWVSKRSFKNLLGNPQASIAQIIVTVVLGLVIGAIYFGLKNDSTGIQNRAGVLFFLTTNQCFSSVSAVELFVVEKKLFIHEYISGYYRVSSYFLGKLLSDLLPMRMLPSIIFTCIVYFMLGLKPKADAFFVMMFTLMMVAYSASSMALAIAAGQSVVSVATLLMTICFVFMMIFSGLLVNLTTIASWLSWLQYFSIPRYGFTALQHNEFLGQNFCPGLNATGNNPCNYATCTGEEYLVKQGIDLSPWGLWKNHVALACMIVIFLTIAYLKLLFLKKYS
Experimental: (§1) After 30 minutes, the pre-incubation solution was aspirated.

P-gp [1] = target: T2, P-gp (Homo sapiens, UniProt P08183); assay: P-gp IC50 assessment, bidirectional digoxin transport in MDR1-MDCK cells
P-gp [2] = target: T2, P-gp; assay: P-gp IC50 assessment, bidirectional digoxin transport in C2BBe1 cells
Experimental: as §1

CYP2C9 = CYP2C9 (Homo sapiens, UniProt P11712); assay: in vitro; settings: microsomes; for % of Control Enzyme Activity: 30 min, pH 7.4
Experimental: CYP TDI was evaluated by a 30-minute pre-incubation of the TA with HLM in the presence and absence of NADPH followed by the CYP enzyme activity assay. […] The total organic solvent content in the final incubation was less than 1% (DMSO ≤0.1%, other organic solvent ≤1%). The CYP reactions were initiated by adding an individual CYP probe substrate with (when NADPH was not added in the pre-incubation step) or without (when NADPH was added in the pre-incubation step) the addition of NADPH (1 mM). The reaction mixture was incubated at 37° C. for 10-30 minutes depending on the individual CYP isoform (Table 24). The reaction was terminated with ice-cold acetonitrile (ACN) containing an internal standard (IS, stable isotope-labeled CYP probe metabolite). Negative (vehicle) controls were conducted using the incubation mixture without the TA. Positive controls were performed in parallel using known CYP time-dependent inhibitors. […] The formation of individual CYP probe metabolites was determined by LC-MS/MS.
The enzyme activity was expressed as the peak area ratio of CYP probe metabolite to IS, measured by LC-MS/MS.

CYP2B6 mRNA = assay: Induction of CYP2B6 mRNA in human hepatocytes (qPCR); settings: controls: 1,000 μM phenobarbital, 10 μM flumazenil, 72 h
Experimental: Plateable and inducible cryopreserved human hepatocytes were thawed and isolated in human hepatocyte thawing medium.
All experiments were performed in triplicate.
After induction treatment, CYP mRNA expression was measured by qPCR. Total RNA was isolated from the treated cells using the RNeasy® mini kit (Qiagen, Valencia, Calif., USA) and treated with RNase-free DNase (Qiagen) following the manufacturer's protocols. The concentration of RNA was determined using a Qubit® Fluorometer with a Qubit RNA HS assay kit (Invitrogen). cDNA was synthesized from up to 1 μg of the total RNA harvested from the cells using a QuantiTect® RT kit (Qiagen). Analysis of CYP gene expression by qPCR (Table 3) was performed using the LightCycler® 480 II System (Roche Diagnostics Corporation, Indianapolis, Ind., USA).
Relative mRNA was expressed as the fold-increase calculated from the normalized mRNA level (2^−ΔΔCt) relative to vehicle control. The percentage of mRNA fold-increase relative to positive control was calculated using the following equation:
% Induction relative to positive control=100×(mRNATA−mRNAvehicle)/(mRNApositive control−mRNAvehicle)

human hepatocytes = assay: Cell viability after CYP induction treatment (MTS); settings: controls: 50 μM OME, 1,000 μM phenobarbital, 50 μM RIF, 10 μM flumazenil, 72 h
Experimental: Plateable and inducible cryopreserved human hepatocytes were thawed and isolated in human hepatocyte thawing medium. […] After attachment (4 hours), the medium was changed to fresh hepatocyte culture medium for overnight cell recovery. […] A positive control (100 μM chlorpromazine) was treated in parallel. […] The absorbance of formazan, which is proportional to the number of viable cells, was measured spectrophotometrically using the CellTiter 96® AQueous One Solution Cell Proliferation Assay (MTS).
After the CYP induction treatment, the cells were used for cell viability assay. The viability of cells (expressed as the percentage of MTS absorbance relative to vehicle control) was measured as described herein.

[3] = batch used with Sol_1, Sol_3, and Sol_4, single replicates
[4] = batch used with Sol_2, single replicates
[5] = batch used with Sol_1, Sol_3, and Sol_4, Average
[6] = pH 7.4, % of Control Enzyme Activity

CYP2C9, sequence (P11712 whole entry, canonical isoform): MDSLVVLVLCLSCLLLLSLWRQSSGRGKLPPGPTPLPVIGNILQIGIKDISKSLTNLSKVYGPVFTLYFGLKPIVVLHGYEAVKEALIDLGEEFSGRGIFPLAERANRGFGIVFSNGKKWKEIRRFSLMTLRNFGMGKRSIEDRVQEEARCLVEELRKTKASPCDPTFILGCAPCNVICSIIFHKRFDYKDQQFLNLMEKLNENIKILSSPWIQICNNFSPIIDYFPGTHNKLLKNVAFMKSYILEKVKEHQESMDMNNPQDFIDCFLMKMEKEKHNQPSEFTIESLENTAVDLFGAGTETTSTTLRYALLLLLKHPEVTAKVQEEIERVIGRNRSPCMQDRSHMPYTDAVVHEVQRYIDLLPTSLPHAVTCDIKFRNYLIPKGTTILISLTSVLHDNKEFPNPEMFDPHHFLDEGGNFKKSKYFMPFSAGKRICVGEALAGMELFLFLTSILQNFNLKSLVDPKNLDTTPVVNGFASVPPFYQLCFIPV
T2 sequence (P08183 whole entry): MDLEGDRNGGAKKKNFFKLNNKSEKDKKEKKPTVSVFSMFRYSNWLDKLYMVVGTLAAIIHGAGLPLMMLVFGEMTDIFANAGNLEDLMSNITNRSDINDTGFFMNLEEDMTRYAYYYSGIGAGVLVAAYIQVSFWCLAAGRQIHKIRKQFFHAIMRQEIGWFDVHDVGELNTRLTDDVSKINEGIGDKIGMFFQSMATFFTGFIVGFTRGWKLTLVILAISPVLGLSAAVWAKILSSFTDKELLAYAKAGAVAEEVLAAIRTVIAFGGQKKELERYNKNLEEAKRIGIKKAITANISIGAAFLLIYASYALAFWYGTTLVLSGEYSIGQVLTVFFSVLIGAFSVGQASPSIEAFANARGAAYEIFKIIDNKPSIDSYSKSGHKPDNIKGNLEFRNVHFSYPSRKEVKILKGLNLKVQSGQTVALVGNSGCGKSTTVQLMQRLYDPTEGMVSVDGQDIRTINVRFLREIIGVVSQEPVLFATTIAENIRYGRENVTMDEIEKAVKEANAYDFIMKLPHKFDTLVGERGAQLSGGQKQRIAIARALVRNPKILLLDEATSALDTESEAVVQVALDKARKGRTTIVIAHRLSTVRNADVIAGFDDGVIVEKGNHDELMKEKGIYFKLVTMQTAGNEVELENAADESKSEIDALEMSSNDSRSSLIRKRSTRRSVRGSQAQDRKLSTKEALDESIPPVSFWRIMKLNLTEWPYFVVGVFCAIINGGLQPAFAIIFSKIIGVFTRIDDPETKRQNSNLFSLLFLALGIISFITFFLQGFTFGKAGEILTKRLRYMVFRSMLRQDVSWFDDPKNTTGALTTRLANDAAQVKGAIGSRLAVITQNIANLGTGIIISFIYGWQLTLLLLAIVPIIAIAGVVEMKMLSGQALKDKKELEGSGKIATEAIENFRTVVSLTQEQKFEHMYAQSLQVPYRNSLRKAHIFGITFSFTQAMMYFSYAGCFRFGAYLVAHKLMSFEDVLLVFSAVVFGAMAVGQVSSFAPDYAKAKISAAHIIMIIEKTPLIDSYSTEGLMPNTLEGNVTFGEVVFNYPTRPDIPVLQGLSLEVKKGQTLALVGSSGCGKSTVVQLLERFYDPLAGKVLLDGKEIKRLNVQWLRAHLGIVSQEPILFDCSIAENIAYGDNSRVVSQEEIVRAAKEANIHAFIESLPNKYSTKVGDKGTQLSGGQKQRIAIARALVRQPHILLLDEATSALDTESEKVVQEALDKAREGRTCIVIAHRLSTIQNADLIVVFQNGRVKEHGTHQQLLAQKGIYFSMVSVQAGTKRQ

Nc1nc(Cl)nc2c1ncn2[C@H]1C[C@H](O)[C@@H](CO)O1 [cladribine]
AP-to-BL Papp (P-gp and BCRP; [3]): 0.549 10^−6 cm/s and 0.580 10^−6 cm/s
BL-to-AP Papp (P-gp and BCRP; [3]): 13.3 10^−6 cm/s and 13.0 10^−6 cm/s
AP-to-BL Papp (P-gp and BCRP; [4]): 0.612 10^−6 cm/s and 0.554 10^−6 cm/s
BL-to-AP Papp (P-gp and BCRP; [4]): 12.4 10^−6 cm/s and 13.1 10^−6 cm/s
Papp A→B at 10 µM (P-gp and BCRP; [5]): 0.5 ×10⁻⁶ cm/s
Papp A→B at 10 µM (P-gp and BCRP; [3]): 0.37 ×10⁻⁶ cm/s
Papp A→B at 10 µM (P-gp and BCRP; batch used with Sol_2, Average): 0.648 ×10⁻⁶ cm/s
Papp A→B at 10 µM (P-gp and BCRP; [4]): 0.778 ×10⁻⁶ cm/s
recovery at 10 μM (P-gp and BCRP; Caco-2, pH 7.4, AP-to-BL Recovery): 95.3%
Papp B→A at 10 µM (P-gp and BCRP; [5]): 13.5 ×10⁻⁶ cm/s
Papp B→A at 10 µM (P-gp and BCRP; [3]): 14.1 ×10⁻⁶ cm/s
Papp B→A at 10 µM (P-gp and BCRP; batch used with Sol_2, Average): 12.8 ×10⁻⁶ cm/s
Papp B→A at 10 µM (P-gp and BCRP; [4]): 12.8 ×10⁻⁶ cm/s
recovery at 10 μM (P-gp and BCRP; Caco-2, pH 7.4, BL-to-AP Recovery): 92.9%
BL-to-AP Papp of cladribine (BCRP): 15.5 10^−6 cm/s

C/C=C/C[C@@H](C)C(=O)[C@H]1C(=O)N[C@@H](C(C)C)C(=O)N(C)CC(=O)N(C)[C@@H](CC(C)C)C(=O)N[C@@H](C(C)C)C(=O)N(C)[C@@H](CC(C)C)C(=O)N[C@@H](C)C(=O)N[C@H](C)C(=O)N(C)[C@@H](CC(C)C)C(=O)N(C)[C@@H](CC(C)C)C(=O)N(C)[C@@H](C(C)C)C(=O)N1C [valspodar, reference compound]
Percent Inhibition (P-gp) (P-gp [1]; 10 μM Digoxin + 1 μM Valspodar, MDR1-MDCK cells): 99.9%
inhibition at 1 μM (P-gp [1]; human, MDR1-MDCK cell monolayers on Transwell plates, pH 7.4, probe digoxin (10 μM)): 99.9%
Percent Inhibition (P-gp, digoxin efflux) (P-gp [2]; C2BBe1 cells, 10 μM digoxin + TUDCA/PB Solution or 1 μM valspodar): 99.3%
inhibition at 1 μM (P-gp [2]; human, pH 7.4): 99.3%

O=C(O)COc1ccc(C(=O)c2cccs2)c(Cl)c1Cl [Tienilic acid]
% of Control Enzyme Activity (CYP2C9; 10 µM): 11.7%
% of Control Enzyme Activity (CYP2C9; 30 µM): 9.64%
activity at 30 min, 10 µM (CYP2C9; [6]): 22.2%
activity at 30 min, 30 µM (CYP2C9; [6]): 16.2%

CCC1(c2ccccc2)C(=O)NC(=O)NC1=O [Phenobarbital, phenobarbital]
CYP2B6 mRNA % Induction Relative to Positive Control (CYP2B6 mRNA; donor 1): 100%
CYP2B6 mRNA Fold-increase (n = 3) Mean (CYP2B6 mRNA; donor 1): 21.8 fold
CYP2B6 mRNA % Induction Relative to Positive Control (CYP2B6 mRNA; donor 2): 100%
CYP2B6 mRNA Fold-increase (n = 3) Mean (CYP2B6 mRNA; donor 2): 39.6 fold
CYP2B6 mRNA % Induction Relative to Positive Control (CYP2B6 mRNA; donor 3): 100%
CYP2B6 mRNA Fold-increase (n = 3) Mean (CYP2B6 mRNA; donor 3): 7.36 fold
% MTS Absorbance Relative to Vehicle Control (human hepatocytes; donor 1): 97.7%
Formazan Absorbance (n = 6) Mean (human hepatocytes; donor 1): 0.417
% MTS Absorbance Relative to Vehicle Control (human hepatocytes; donor 2): 98.8%
Formazan Absorbance (n = 6) Mean (human hepatocytes; donor 2): 0.504
% MTS Absorbance Relative to Vehicle Control (human hepatocytes; donor 3): 108%
Formazan Absorbance (n = 6) Mean (human hepatocytes; donor 3): 0.320
